Measured values from patent US10266544B2, “Aryl substituted aminomethyl spectinomycin analogs as antibacterial agents” (ST. JUDE CHILDREN'S RESEARCH HOSPITAL, INC., priority 2013, dated 2019).
In brackets after ≈: the same amount, converted by molar mass. Structures can show the parent of a compound that is named as a salt. Where two headings read alike, the source gives them in different places.

Columns and labels:
Assay type in all cases: cell-based
[1] = tested on: MRSA, Staphylococcus aureus (NRS70); assay: MIC determination, microbroth dilution; conditions: Staphylococcus aureus (NRS70); read-out: MIC MRSA
[2] = tested on: Haemophilus influenza (ATCC 49247); assay: microbe, parasite or virus in culture
[3] = tested on: Neisseria meningitides (ATCC 13077); assay: Disc diffusion assay; conditions: ATCC13077, 4 μg per disc, read-out: Zone of inhibition N.m.
[4] = tested on: Enterococcus faecalis (ATCC 33186); assay: MIC determination, microbroth dilution; conditions: ATCC33186; Enterococcus faecalis (ATCC 33186); read-out: MIC E.f.
[5] = tested on: live vaccine strain (LVS) of Francisella tularensis; assay: microbe, parasite or virus in culture; conditions: Francisella tularensis
[6] = tested on: Neisseria gonorrhoeae (ATCC 49226); assay: Disc diffusion assay; conditions: ATCC49226, 4 μg per disc, read-out: Zone of inhibition N.g.
[7] = tested on: Pseudomonas aeruginosa (PA01); assay: MIC determination, microbroth dilution
[8] = tested on: Escherichia coli (ATCC 700926); assay: MIC determination, microbroth dilution; conditions: ATCC700926; Escherichia coli (ATCC 700926); read-out: MIC E.c.
[9] = tested on: acinetobacter baumannii (ATCC 19606); assay: MIC determination, microbroth dilution; conditions: ATCC19606
[10] = tested on: Proteus mirabilis (ATCC 25933); assay: MIC determination, microbroth dilution; conditions: ATCC25933
[11] = tested on: Stenotrophomonas maltophilia (ATCC 13637); assay: MIC determination, microbroth dilution; conditions: ATCC13637; Stenotrophomonas maltophilia (ATCC 13637); read-out: MIC S.m.
Moraxella catarrhalis = assay: MIC determination (Table 6)
[12] = tested on: Legionella pneumophila (ATCC 33153); assay: microbe, parasite or virus in culture; conditions: ATCC33153, 72 h, read-out: Zone of inhibition L.p.
E. coli K12 ΔtolC = assay: microbe, parasite or virus in culture; conditions: Escherichia coli, read-out: MIC E.c. Δtolc
[13] = tested on: Streptococcus pneumoniae (R6); assay: MIC determination, microbroth dilution
[14] = tested on: Bacillus anthracis, Sterne 34F2; assay: microbe, parasite or virus in culture; conditions: STERNE34F2, read-out: MIC B.a.
[15] = tested on: Neisseria gonorrhoeae (ATCC 49226); assay: Agar MIC determination (Alamar Blue); conditions: ATCC49226, agar MIC, read-out: MIC N.g.
[16] = tested on: Burkholderia cepacia (ATCC 25416); assay: MIC determination, microbroth dilution
Listeria monocytogenes = assay: MIC determination (Table 6)
Bacillus anthracis = assay: microbe, parasite or virus in culture; conditions: read-out: MIC B.a.
[17] = tested on: M. tuberculosis clinical isolates; assay: microbe, parasite or virus in culture; conditions: Mycobacterium tuberculosis
[18] = tested on: Klebsiella pneumoniae (ATCC 33495); assay: MIC determination, microbroth dilution; conditions: ATCC33495
Yersinia pestis = assay: microbe, parasite or virus in culture; conditions: read-out: MIC Y.p.
[19] = tested on: Streptococcus pneumoniae clinical isolates representing several serotypes; assay: MIC determination, Streptococcus pneumoniae panel of clinical isolates (Table 7); conditions: Streptococcus pneumoniae
[20] = tested on: Proteus vulgaris (ATCC 33420); assay: MIC determination, microbroth dilution; conditions: ATCC33420
[21] = tested on: Bacillus subtilis (ATCC 23857); assay: MIC determination, microbroth dilution; conditions: ATCC23857; Bacillus subtilis (ATCC 23857); read-out: MIC B.s.
[22] = tested on: Streptococcus pyogenes (ATCC 700294); assay: MIC determination, microbroth dilution; conditions: ATCC700294; Streptococcus pyogenes (ATCC 700294); read-out: MIC S. py.
[23] = tested on: Staphylococcus aureus (ATCC 29213); assay: MIC determination, microbroth dilution; conditions: ATCC29213; Staphylococcus aureus (ATCC 29213); read-out: MIC S.a.
[24] = S. pneumoniae Daw7, PenG Resistant, read-out: MIC Daw7
[25] = S. pneumoniae Daw8, PenG Resistant, read-out: MIC Daw8
[26] = S. pneumoniae Daw62, PenG Resistant, read-out: MIC Daw62
[27] = S. pneumoniae Daw64, PenG Resistant, read-out: MIC Daw64

Compound `CN[C@@H]1[C@H](O)[C@H](NC)[C@H]2O[C@@]3(O)C(=O)C[C@@H](C)O[C@H]3O[C@@H]2[C@H]1O` [SPC, (2R,4aR,5aR,6S,7S,8R,9S,9aR,10aS)-4a,7,9-trihydroxy-2-methyl-6,8-bis(methylamino)decahydro-4H-benzo[b]pyrano[2,3-e][1,4]dioxin-4-one, reference compound] has an MIC [1] greater than 200 µg/mL, a zone of inhibition at 4 µg/disc ([2]; Haemophilus, ATCC49247, read-out: Zone of inhibition H.i.) of 11 to 13 mm and a zone of inhibition at 4 µg/disc [3] of 13 to 14 mm. It also gave an MIC [4] of 50 to 100 µg/mL (≈ 150 to 301 µM), an MIC ([5]; read-out: MIC F.t.) of 12.5 to 25 µg/mL (≈ 37.6 to 75.2 µM) and a zone of inhibition at 4 µg/disc [6] of 11 to 13 mm. For the same compound, the MIC [7] was 50 to 100 µg/mL (≈ 150 to 301 µM), the MIC [8] was 25 to 50 µg/mL (≈ 75.2 to 150 µM) and the MIC [9] was greater than 200 µg/mL. It also gave an MIC [10] greater than 200 µg/mL, an MIC [11] of 50 to 200 µg/mL (≈ 150 to 602 µM) and an MIC (Moraxella catarrhalis) of 3.1 to 6.3 µg/mL (≈ 9.33 to 19 µM). It also gave a zone of inhibition at 4 µg/disc [12] of 0 mm, an MIC (E. coli K12 ΔtolC) of 3.1 to 12.5 µg/mL (≈ 9.33 to 37.6 µM) and an MIC ([13]; Streptococcus pneumoniae, read-out: MIC R6) of 12.5 µg/mL (≈ 37.6 µM). The MIC ([13]; Streptococcus pneumoniae, read-out: MIC S. pn.) was 12.5 µg/mL (≈ 37.6 µM), the MIC [14] was 25 µg/mL (≈ 75.2 µM) and the MIC [15] was 50 µg/mL (≈ 150 µM). For the same compound, the MIC ([16]; ATCC25416, Burkholderia cepacia (ATCC 25416), read-out: MIC B.c.) was 50 to 100 µg/mL (≈ 150 to 301 µM), the “MIC B.c.” value ([16]; Burkholderia cepacia, Table 6) was 50 to 100 µg/mL and the MIC (Listeria monocytogenes) was 25 to 50 µg/mL (≈ 75.2 to 150 µM). The MIC (Bacillus anthracis) was 25 µg/mL (≈ 75.2 µM), the MIC ([17]; H37RV, read-out: MIC H37Rv) was 100 µg/mL (≈ 301 µM) and the MIC ([17]; read-out: MIC TN022) was 200 µg/mL (≈ 602 µM). It also gave an MIC ([17]; read-out: MIC TN026) of 200 µg/mL (≈ 602 µM), an MIC [18] greater than 200 µg/mL and an MIC (Yersinia pestis) of 12.5 µg/mL (≈ 37.6 µM). For the same compound, the MIC ([19]; BAA1407, read-out: MIC BAA-1407) was 12.5 µg/mL (≈ 37.6 µM), the MIC ([19]; read-out: MIC D39X) was 12.5 µg/mL (≈ 37.6 µM) and the MIC ([19]; read-out: MIC Daw9) was 12.5 µg/mL (≈ 37.6 µM). It also gave an MIC ([19]; read-out: MIC OVA6) of 12.5 µg/mL (≈ 37.6 µM), an MIC ([19]; read-out: MIC T4X) of 12.5 µg/mL (≈ 37.6 µM) and an MIC ([19]; S. pneumoniae A66.1x, Drug Susceptible, read-out: MIC A66.1x) of 6.3 µg/mL (≈ 19 µM). It also gave an MIC ([19]; S. pneumoniae BHN97x, Drug Susceptible, read-out: MIC BHN97x) of 6.3 µg/mL (≈ 19 µM), an MIC [19, 24] of 25 µg/mL (≈ 75.2 µM) and an MIC [19, 25] of 25 µg/mL (≈ 75.2 µM). For the same compound, the MIC [19, 26] was 25 µg/mL (≈ 75.2 µM), the MIC [19, 27] was 25 µg/mL (≈ 75.2 µM) and the MIC [20] was 50 µg/mL (≈ 150 µM). For the same compound, the MIC [21] was 25 µg/mL (≈ 75.2 µM) and the MIC [22] was 25 µg/mL (≈ 75.2 µM).
`CN[C@@H]1[C@H](O)[C@H](NC)[C@H]2O[C@]3(O)[C@H](O[C@@H]2[C@H]1O)O[C@H](C)C[C@@]3(O)CNCc1ccccc1OC(F)(F)F` [compound 10, Trihydrochloride] gave an MIC [1] of 200 µg/mL, a zone of inhibition at 4 µg/disc ([2]; ATCC49247, Haemophilus influenza, 4 μg per disc, range of at least two experiments, read-out: Zone of inhibition H.i.) of 0 mm and a zone of inhibition at 4 µg/disc [3] of 0 mm. For the same compound, the MIC [4] was 200 µg/mL, the MIC [5] was 25 µg/mL and the MIC ([5]; read-out: MIC F.t.) was 25 µg/mL. It also gave a zone of inhibition at 4 µg/disc [6] of 8 mm, an MIC [23] of 200 µg/mL and an MIC [7] of 200 µg/mL. For the same compound, the MIC [8] was 200 µg/mL, the MIC [9] was 100 to 200 µg/mL and the MIC [10] was greater than 200 µg/mL. It also gave an MIC [11] of 50 µg/mL, an MIC (Moraxella catarrhalis) of 50 to 100 µg/mL and an MIC (E. coli K12 ΔtolC) of 25 to 50 µg/mL. For the same compound, the MIC ([13]; Streptococcus pneumoniae (R6), read-out: MIC S. pn.) was 25 µg/mL, the MIC ([13]; Streptococcus pneumoniae, S. pneumoniae R6, Drug Susceptible, read-out: MIC R6) was 12.5 µg/mL and the MIC [14] was 200 µg/mL. For the same compound, the MIC [15] was 200 µg/mL, the MIC ([16]; Burkholderia cepacia, ATCC25416, read-out: MIC B.c., Burkholderia cepacia (ATCC 25416)) was greater than 200 µg/mL and the MIC ([16]; Burkholderia cepacia, ATCC25416, read-out: MIC B.c., Burkholderia cepacia, Table 6) was greater than 200 µg/mL. It also gave an MIC (Listeria monocytogenes) of 100 µg/mL, an MIC (Bacillus anthracis) of 200 µg/mL and an MIC ([17]; H37RV, read-out: MIC H37Rv) of 200 µg/mL. The MIC [18] was 100 to 200 µg/mL, the MIC (Yersinia pestis) was 200 µg/mL and the MIC ([19]; BAA1407, S. pneumoniae BAA-1407, Macrolide Resistant, read-out: MIC BAA-1407) was 25 µg/mL. It also gave an MIC [19, 24] of 12.5 µg/mL, an MIC [19, 25] of 12.5 µg/mL and an MIC ([19]; S. pneumoniae Daw9, PenG Resistant, read-out: MIC Daw9) of 12.5 µg/mL. It also gave an MIC [19, 26] of 12.5 µg/mL, an MIC [19, 27] of 25 µg/mL and an MIC ([19]; S. pneumoniae OVA6, Macrolide Resistant, read-out: MIC OVA6) of 6.3 µg/mL. The MIC ([19]; S. pneumoniae T4X, Drug Susceptible, read-out: MIC T4X) was 3.1 µg/mL, the MIC [20] was greater than 200 µg/mL and the MIC [21] was 50 µg/mL. For the same compound, the MIC [22] was 25 to 50 µg/mL.
